Reference: PubChem BioAssay AID256 (DTP/NCI, 2004)
Where “and” joins values, the source holds several entries; their conditions need not be identical. Equal entries are not always repeated. Inconclusive results and toxic doses are left out.

System: CD2F1 mice, L1210 leukemia ip, survival T/C
Test: NCI In Vivo Anticancer Drug Screen. Data for tumor model L1210 Leukemia (intraperitoneal) in CD2F1 (CDF1) mice
Details: higher = longer survival
Procedure, shortened: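 Compound-dosed mice with transplantable tumor versus matched vehicle controls; endpoint ratio T/C reported.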

[1] = endpoint: mean survival time, dose: 100.0 mg/kg/injection, schedule: Q04DX003 (ip), vehicle: saline with Tween-80
[2] = endpoint: mean survival time, dose: 200.0 mg/kg/injection, schedule: Q04DX003 (ip), vehicle: saline with Tween-80
[3] = endpoint: mean survival time, dose: 400.0 mg/kg/injection, schedule: Q04DX003 (ip), vehicle: saline with Tween-80

N#CCCCC1(CCCC#N)OCCO1
T/C (endpoint: mean survival time, dose: 50.0 mg/kg/injection, schedule: Q04DX003 (ip), vehicle: saline): 100 % of control
T/C (endpoint: mean survival time, dose: 100.0 mg/kg/injection, schedule: Q04DX003 (ip), vehicle: saline): 102 % of control
T/C (endpoint: mean survival time, dose: 200.0 mg/kg/injection, schedule: Q04DX003 (ip), vehicle: saline): 107 % of control

Brc1cscc1-c1cccc2ccccc12
T/C (endpoint: mean survival time, dose: 12.5 mg/kg/injection, schedule: Q01DX009 (ip), vehicle: saline with Tween-80): 95 % of control
T/C (endpoint: mean survival time, dose: 25.0 mg/kg/injection, schedule: Q01DX009 (ip), vehicle: saline with Tween-80): 95 % of control
T/C (endpoint: mean survival time, dose: 50.0 mg/kg/injection, schedule: Q01DX009 (ip), vehicle: saline with Tween-80): 95 % of control

O.O.O=C(O)CC(=O)O.[NH-]C1CCCCC1[NH-].[Pt+2] (stereo unspecified)
T/C (endpoint: mean survival time, dose: 12.5 mg/kg/injection, schedule: Q04DX003 (ip), vehicle: dextrose): 98 % of control

NC1=Nc2ccccc2CS1
T/C (endpoint: mean survival time, dose: 9.4 mg/kg/injection, schedule: Q01DX009 (ip), vehicle: saline): 95 % of control
T/C (endpoint: mean survival time, dose: 18.8 mg/kg/injection, schedule: Q01DX009 (ip), vehicle: saline): 107 % of control
T/C (endpoint: mean survival time, dose: 37.5 mg/kg/injection, schedule: Q01DX009 (ip), vehicle: saline): 89 % of control
T/C (endpoint: mean survival time, dose: 75.0 mg/kg/injection, schedule: Q01DX001 (ip), vehicle: saline): 98 % of control

[O-][n+]1c2cccc(O)c2[n+]([O-])c2cccc(O)c21
T/C [1]: 91 % of control
T/C [2]: 100 % of control
T/C [3]: 103 % of control

c1cc2c(c(NC3=NCCCO3)c1)CCCC2
T/C (endpoint: mean survival time, dose: 12.5 mg/kg/injection, schedule: Q04DX003 (ip), vehicle: saline with Tween-80): 97 % of control
T/C (endpoint: mean survival time, dose: 25.0 mg/kg/injection, schedule: Q04DX003 (ip), vehicle: saline with Tween-80): 106 % of control
T/C (endpoint: mean survival time, dose: 50.0 mg/kg/injection, schedule: Q04DX003 (ip), vehicle: saline with Tween-80): 101 % of control

NCCCNCCCCNC(=O)C(O)NC(=O)CCCCCCN=C(N)N (stereo unspecified)
T/C (endpoint: median survival time, dose: 0.19 mg/kg/injection, schedule: Q01DX005 (iv), vehicle: saline): 123 % of control
T/C (endpoint: median survival time, dose: 0.39 mg/kg/injection, schedule: Q01DX009 (ip), vehicle: saline): 185 % of control and 231 % of control
T/C (endpoint: median survival time, dose: 0.75 mg/kg/injection, schedule: Q01DX009 (ip), vehicle: saline): 198 % of control
T/C (endpoint: median survival time, dose: 0.78 mg/kg/injection, schedule: Q01DX005 (iv), vehicle: other): 153 % of control
T/C (endpoint: median survival time, dose: 0.78 mg/kg/injection, schedule: Q01DX005 (iv), vehicle: saline): 156 % of control
T/C (endpoint: median survival time, dose: 0.78 mg/kg/injection, schedule: Q01DX009 (ip), vehicle: other): 213 % of control
T/C (endpoint: median survival time, dose: 1.3 mg/kg/injection, schedule: Q01DX005 (iv), vehicle: other): 153 % of control
T/C (endpoint: median survival time, dose: 1.3 mg/kg/injection, schedule: Q01DX005 (iv), vehicle: saline): 161 % of control
T/C (endpoint: median survival time, dose: 1.5 mg/kg/injection, schedule: Q01DX009 (ip), vehicle: saline): 220 % of control
T/C (endpoint: median survival time, dose: 1.56 mg/kg/injection, schedule: Q01DX005 (iv), vehicle: saline): 160 % of control
T/C (endpoint: median survival time, dose: 1.56 mg/kg/injection, schedule: Q01DX009 (ip), vehicle: other): 213 % of control
T/C (endpoint: median survival time, dose: 2.16 mg/kg/injection, schedule: Q01DX005 (iv), vehicle: other): 171 % of control
T/C (endpoint: median survival time, dose: 2.16 mg/kg/injection, schedule: Q01DX005 (iv), vehicle: saline): 165 % of control
T/C (endpoint: median survival time, dose: 3.0 mg/kg/injection, schedule: Q01DX009 (ip), vehicle: saline): 220 % of control
T/C (endpoint: median survival time, dose: 3.12 mg/kg/injection, schedule: Q01DX005 (iv), vehicle: saline): 172 % of control
T/C (endpoint: median survival time, dose: 3.12 mg/kg/injection, schedule: Q01DX009 (ip), vehicle: other): 204 % of control
T/C (endpoint: median survival time, dose: 3.6 mg/kg/injection, schedule: Q01DX005 (iv), vehicle: other): 176 % of control
T/C (endpoint: median survival time, dose: 3.6 mg/kg/injection, schedule: Q01DX005 (iv), vehicle: saline): 164 % of control
T/C (endpoint: median survival time, dose: 4.4 mg/kg/injection, schedule: Q01DX009 (ip), vehicle: saline): 221 % of control and 225 % of control and 230 % of control
T/C (endpoint: median survival time, dose: 4.5 mg/kg/injection, schedule: Q01DX009 (ip), vehicle: saline): 219 % of control
T/C (endpoint: median survival time, dose: 6.0 mg/kg/injection, schedule: Q01DX005 (iv), vehicle: other): 175 % of control
T/C (endpoint: median survival time, dose: 6.0 mg/kg/injection, schedule: Q01DX005 (iv), vehicle: saline): 172 % of control
T/C (endpoint: median survival time, dose: 6.0 mg/kg/injection, schedule: Q01DX009 (ip), vehicle: saline): 219 % of control
T/C (endpoint: median survival time, dose: 6.25 mg/kg/injection, schedule: Q01DX005 (iv), vehicle: saline): 430 % of control
T/C (endpoint: median survival time, dose: 6.25 mg/kg/injection, schedule: Q01DX009 (ip), vehicle: other): 225 % of control
T/C (endpoint: median survival time, dose: 7.88 mg/kg/injection, schedule: Q01DX005 (sc), vehicle: water): 163 % of control
T/C (endpoint: median survival time, dose: 10.0 mg/kg/injection, schedule: Q01DX005 (iv), vehicle: saline): 180 % of control
T/C (endpoint: median survival time, dose: 12.0 mg/kg/injection, schedule: Q01DX009 (ip), vehicle: saline): 223 % of control
T/C (endpoint: median survival time, dose: 12.5 mg/kg/injection, schedule: Q01DX009 (ip), vehicle: other): 242 % of control
T/C (endpoint: median survival time, dose: 15.75 mg/kg/injection, schedule: Q01DX005 (sc), vehicle: water): 173 % of control and 179 % of control
T/C (endpoint: median survival time, dose: 25.0 mg/kg/injection, schedule: Q01DX009 (ip), vehicle: other): 227 % of control
T/C (endpoint: median survival time, dose: 31.5 mg/kg/injection, schedule: Q01DX005 (sc), vehicle: water): 178 % of control and 182 % of control
T/C (endpoint: median survival time, dose: 31.5 mg/kg/injection, schedule: Q03HX008 (sc), vehicle: water): 164 % of control
T/C (endpoint: median survival time, dose: 37.0 mg/kg/injection, schedule: Q01DX005 (sc), vehicle: water): 183 % of control
T/C (endpoint: median survival time, dose: 45.0 mg/kg/injection, schedule: Q01DX005 (sc), vehicle: water): 176 % of control
T/C (endpoint: median survival time, dose: 150.0 micrograms per hour, schedule: Q#X X048 (sc), vehicle: water): 182 % of control
T/C (endpoint: median survival time, dose: 150.0 micrograms per hour, schedule: Q#X X072 (sc), vehicle: water): 182 % of control
T/C (endpoint: median survival time, dose: 150.0 micrograms per hour, schedule: Q#X X096 (sc), vehicle: water): 205 % of control
T/C (endpoint: median survival time, dose: 170.0 micrograms per hour, schedule: Q#X X048 (sc), vehicle: water): 178 % of control
T/C (endpoint: median survival time, dose: 170.0 micrograms per hour, schedule: Q#X X072 (sc), vehicle: water): 200 % of control
T/C (endpoint: median survival time, dose: 200.0 micrograms per hour, schedule: Q#X X048 (sc), vehicle: water): 110 % of control
T/C (endpoint: median survival time, dose: 200.0 micrograms per hour, schedule: Q#X X072 (sc), vehicle: water): 101 % of control
T/C (endpoint: median survival time, dose: 200.0 micrograms per hour, schedule: Q#X X096 (sc), vehicle: water): 114 % of control
T/C (endpoint: median survival time, dose: 207.0 micrograms per hour, schedule: Q#X X048 (sc), vehicle: water): 168 % of control
T/C (endpoint: median survival time, dose: 207.0 micrograms per hour, schedule: Q#X X072 (sc), vehicle: water): 120 % of control
T/C (endpoint: median survival time, dose: 207.0 micrograms per hour, schedule: Q#X X096 (sc), vehicle: water): 109 % of control

Cc1ccc(C(C)(c2ccccc2)C(C)(CC=O)CC(=O)O)cc1 (stereo unspecified)
T/C (endpoint: mean survival time, dose: 100.0 mg/kg/injection, schedule: Q01DX009 (ip), vehicle: saline with Tween-80): 95 % of control
T/C (endpoint: mean survival time, dose: 200.0 mg/kg/injection, schedule: Q01DX009 (ip), vehicle: saline with Tween-80): 94 % of control
T/C (endpoint: mean survival time, dose: 400.0 mg/kg/injection, schedule: Q01DX009 (ip), vehicle: saline with Tween-80): 97 % of control

Cc1ccc(C#N)c2c1CCC2
T/C (endpoint: mean survival time, dose: 100.0 mg/kg/injection, schedule: Q01DX001 (ip), vehicle: Klucel (hydroxypropylcellulose) (HPC)): 103 % of control
T/C (endpoint: mean survival time, dose: 200.0 mg/kg/injection, schedule: Q01DX001 (ip), vehicle: Klucel (hydroxypropylcellulose) (HPC)): 95 % of control
T/C (endpoint: mean survival time, dose: 400.0 mg/kg/injection, schedule: Q01DX001 (ip), vehicle: Klucel (hydroxypropylcellulose) (HPC)): 103 % of control

NCC1OC(n2cnc3c(N)ncnc32)C(O)C1O (stereo unspecified)
T/C (endpoint: mean survival time, dose: 12.5 mg/kg/injection, schedule: Q01DX005 (ip), vehicle: Klucel (hydroxypropylcellulose) (HPC)): 109 % of control
T/C (endpoint: mean survival time, dose: 25.0 mg/kg/injection, schedule: Q01DX005 (ip), vehicle: Klucel (hydroxypropylcellulose) (HPC)): 107 % of control
T/C (endpoint: mean survival time, dose: 50.0 mg/kg/injection, schedule: Q01DX005 (ip), vehicle: Klucel (hydroxypropylcellulose) (HPC)): 115 % of control
T/C (endpoint: mean survival time, dose: 100.0 mg/kg/injection, schedule: Q01DX005 (ip), vehicle: Klucel (hydroxypropylcellulose) (HPC)): 115 % of control

Cn1c(=O)c2c(ncn2C(C(N)=O)C(N)=O)n(C)c1=O
T/C (endpoint: mean survival time, dose: 200.0 mg/kg/injection, schedule: Q01DX005 (ip), vehicle: distilled water + Tween-80): 106 % of control
T/C (endpoint: mean survival time, dose: 400.0 mg/kg/injection, schedule: Q01DX005 (ip), vehicle: distilled water + Tween-80): 100 % of control

Cc1cccc(OP(=O)(c2ccccc2)c2ccccc2)c1
T/C [1]: 98 % of control
T/C [2]: 98 % of control
T/C [3]: 103 % of control

CCCCn1c(C)nc2c([N+](=O)[O-])cc(C(F)(F)F)cc21
T/C (endpoint: mean survival time, dose: 50.0 mg/kg/injection, schedule: Q01DX001 (ip), vehicle: saline with Tween-80): 95 % of control
T/C (endpoint: mean survival time, dose: 100.0 mg/kg/injection, schedule: Q01DX001 (ip), vehicle: saline with Tween-80): 98 % of control
T/C (endpoint: mean survival time, dose: 200.0 mg/kg/injection, schedule: Q01DX001 (ip), vehicle: saline with Tween-80): 95 % of control
